From article PMC3758303 (PLoS ONE, 2013)

Experiments:
[1] = system: HCV-RNA replication in ORL8 cells; assay: Combination with IFN-α and/or RBV, ORL8 RL assay; assay type: cell-based, hepatitis C virus; conditions: 72 hrs; for anti-HCV effect in combination with IFN-α: IFN-α more than 4 IU/ml
Source text: (§1) We examined the anti-HCV activity of N-89 or N-251 in combination with IFN-α using OR6 and ORL8 assay systems. […] However, such an effect was not clear in the OR6 assay (Fig. S4A). […] Therefore, we next examined the combination effect of RBV in the same way as IFN-α using an ORL8 assay. […] Therefore, we further examined the effect of N89 or N-251 in combination with both IFN-α and RBV using an ORL8 assay.
Figure 6 Synergistic anti-HCV effects of N-89 or N-251 in combination with IFN-α and/or RBV on HCV-RNA replication in ORL8 cells. […] ORL8 cells were treated with N-89 (upper panel) or N-251 (lower panel) in combination with IFN-α (A), RBV (B), or IFN-α and RBV (C) for 72 hrs and subjected to RL assay.

[2] = WST-1 cell proliferation assay, 1B-4R cells; assay type: cell-based; conditions: human
Description: (§2) The WST-1 cell proliferation assay was performed as described previously. Briefly, The cells were plated onto 96-well plates (1×10^3 cells per well) in triplicate and then treated with each reagent at several concentrations for 72 hrs. After treatment, the cells were subjected to the WST-1 cell proliferation assay (Takara Bio, Otsu, Japan) according to the manufacturer’s protocol. This assay is based on the enzymatic cleavage of the tetrazolium salt WST-1 to formazan by cellular mitochondrial dehydrogenases present in viable cells. Therefore, there are […] the value of the WST-1 assay becomes zero. The experiments were performed at least in triplicate. From the assay results, the 50% cytotoxic concentration (CC50) of each reagent was determined.

[3] = system: HCV subgenomic replicon RNA (O strain) replication in HuH-7-derived polyclonal sOR cells; assay: sOR RL assay; assay type: cell-based, hepatitis C virus; conditions: HuH-7, subgenomic replicon
Description: (§3) RSc and D7 cells were derived from the cell lines HuH-7 and Li23, respectively, were cultured as described previously, [29]. HuH-7-derived OR6 [13], AH1R [30], and 1B-4R [Ikeda et al., submitted] cells harboring genome-length HCV-RNA and HuH-7-derived polyclonal sOR [31], and RSc-JRN/35B [Ikeda et al., submitted] cells harboring an HCV subgenomic replicon were cultured with medium in the presence of G418 (0.3 mg/ml; Geneticin, Invitrogen, Carlsbad, CA) as described previously. Li23-derived ORL8 [20], ORL11 [20], 1B-4RL [Ikeda et al., submitted], and KAH5RL [Ikeda et al., submitted] cells harboring genome-length HCV-RNA were maintained with medium in the presence of G418 (0.3 mg/ml) as described previously. Li23-derived polyclonal sORL8 and sORL11 cells harboring an HCV replicon, which were established by the transfection of ORN/3-5B/QR,KE,SR RNA into the cured OL8 and OL11 cells, respectively, were also cultured with medium in the presence of G418 (0.3 mg/ml) as described previously. Cured cells, from which the HCV-RNA had been eliminated by IFN treatment, were also maintained with medium in the absence of G418 as described previously. […] Therefore, when HCV-RNA is excluded from the cells or when its level is decreased, the cells are killed in the presence of G418.
RL assay was performed as described previously, [24]. Briefly, the cells were plated onto 24-well plates (2×10^4 cells per well) in triplicate and then treated with each reagent at several concentrations for 72 hrs. After treatment, the cells were subjected to luciferase assay using the RL assay system (Promega, Madison, WI). The experiments were performed at least in triplicate. From the assay results, the 50% effective concentration (EC50) of each reagent was determined.
(§4) The SI value of each reagent was determined by dividing the CC50 value by the EC50 value.

[4] = WST-1 cell proliferation assay, AH1R cells; assay type: cell-based; conditions: human
Description: as §2

[5] = system: genome-length HCV-RNA (1B-4 strain of genotype 1b) replication in Li23-derived 1B-4RL cells; assay: 1B-4RL RL assay; assay type: cell-based; conditions: Hepatitis C virus, 1B-4RL assay, Li23, HCV strain 1B-4, 72 hrs
Description: as §3, with “G418. […]” for “G418.”
as §4

[6] = WST-1 cell proliferation assay, OR6 cells; assay type: cell-based; conditions: human
Description: as §2

[7] = WST-1 cell proliferation assay, sORL11 cells; assay type: cell-based; conditions: human
Description: as §2

[8] = WST-1 cell proliferation assay, ORL11 cells; assay type: cell-based; conditions: human
Description: as §2

[9] = system: subgenomic HCV-JFH-1 replicon in RSc-JRN/35B cells; assay: RSc-JRN/35B RL assay; assay type: cell-based, hepatitis C virus
Description: RSc and D7 cells were derived from the cell lines HuH-7 and Li23, respectively, were cultured as described previously, [29]. HuH-7-derived OR6 [13], AH1R [30], and 1B-4R [Ikeda et al., submitted] cells harboring genome-length HCV-RNA and HuH-7-derived polyclonal sOR [31], and RSc-JRN/35B [Ikeda et al., submitted] cells harboring an HCV subgenomic replicon were cultured with medium in the presence of G418 (0.3 mg/ml; Geneticin, Invitrogen, Carlsbad, CA) as described previously. Li23-derived ORL8 [20], ORL11 [20], 1B-4RL [Ikeda et al., submitted], and KAH5RL [Ikeda et al., submitted] cells harboring genome-length HCV-RNA were maintained with medium in the presence of G418 (0.3 mg/ml) as described previously. Li23-derived polyclonal sORL8 and sORL11 cells harboring an HCV replicon, which were established by the transfection of ORN/3-5B/QR,KE,SR RNA into the cured OL8 and OL11 cells, respectively, were also cultured with medium in the presence of G418 (0.3 mg/ml) as described previously. […]
We next examined whether N-89 and N-251 worked in an HCV production system using HCV-JFH-1 strain (genotype 2a). […] To clarify whether anti-HCV activity depends on the difference of genotype or assay model, we evaluated the activities of N-89 and N-251 using RSc-JRN/35B [Ikeda et al., submitted] cells harboring a subgenomic HCV-JFH-1 replicon as an additional assay.

[10] = WST-1 cell proliferation assay, ORL8 cells; assay type: cell-based; conditions: human
Description: as §2

[11] = system: HCV-RNA replication in OR6 cells; assay: Combination with IFN-α and/or RBV, OR6 RL assay; assay type: cell-based, hepatitis C virus; conditions: 72 hrs
Source text: as §1
Supplementary file pone.0072519.s004.tif: Figure S4 Anti-HCV effects of N-89 or N-251 in combination with IFN-α and/or RBV on HCV-RNA replication in OR6 cells. […] (A) Effect of N-89 or N-251 in combination with IFN-α on OR6 assay. OR6 cells were treated with N-89 (upper panel) or N-251 (lower panel) in combination with IFN-α for 72 hrs and subjected to RL assay. (B) Effect of N-89 or N-251 in combination with RBV on OR6 assay. OR6 cells were treated with N-89 (upper panel) or N-251 (lower panel) in combination with RBV for 72 hrs and subjected to RL assay. (C) Effect of N-89 or N-251 in combination with IFN-α and RBV on OR6 assay. OR6 cells were treated with N-89 (upper panel) or N-251 (lower panel) in combination with IFN-α and RBV for 72 hrs and subjected to RL assay. (TIF) Click here for additional data file.

Row | SMILES | anti-HCV effect in combination with RBV [1] | anti-HCV effect in combination with both IFN-α and RBV [1] | anti-HCV effect in combination with IFN-α [1] | CC50 at 72 h [2] [nM] | EC50 ([3]; Hepatitis C virus, Huh-7, 72 h) [nM] | EC50 ([3]; 72 hrs) [nM] | CC50 at 72 h [4] [nM] | EC50 [5] [nM] | CC50 at 72 h [6] [nM] | CC50 at 72 h [7] [nM] | CC50 at 72 h [8] [nM] | anti-HCV activity, subgenomic HCV-JFH-1 replicon [9] | CC50 at 72 h [10] [nM] | anti-HCV effect in combination with IFN-α [11] | anti-HCV effect in combination with RBV [11]
1 | OCCCCCCC1COOC2(CCCCCCCCCCC2)OOC1 [N-251, 6-(1,2,6,7-tetraoxaspiro[7.11]nonadec-4-yl)hexan-1-ol] | synergistic effect | synergistically enhanced | synergistic effect | 3800 | < 1000 | 690 | 490 | 230 | 3000 | 3100 | 1100 | did not show any anti-HCV activities | 1300 | not clear | additive anti-HCV effect
2 | C1CCCCCC2(CCCCC1)OOCCCOO2 [N-89, 1,2,6,7-Tetraoxaspiro[7.11]nonadecane] | synergistic effect | synergistically enhanced | synergistic effect | 9300 | < 1000 | 580 | > 500 | 120 | 9000 | 1700 | 560 | did not show any anti-HCV activities | 2300 | not clear | additive anti-HCV effect
